Measurements from patent US20040248762A1, “Malodor counteractant compositions” (priority 2003, published 2004).
“And” between values parts separate entries of the source, which are not always exact repeats. Equal entries are not always repeated.

Experiments:
[1] = Synthetic axilla malodor on cotton pads, panel rating of malodor strength; design: species or system human; conditions: scale 5 overpowering to 1 not detectable; for 5% OMC + 5% Compound B (axilla malodor panel score): mixture 5% OMC + 5% Compound B
Procedure: 100 μl of synthetic axilla malodor was placed onto cotton pads. 0.4 g of an ethanolic solution containing 10% (wt) of a test compound identified in Table 1 was placed on each axilla malodor treated cotton pad. Each pad was allowed to dry 15 for minutes, and then evaluated using a 10-member panel after 3 hours. The test cotton pads were randomized, and each panelist was asked to check a box that represented the strength of the axilla malodor using the following scale:
In this example, the MOC effect of various mixtures of a Class A MOC compound and a Class B MOC compound (i.e., dihexyl fumerate as disclosed in Kulka, U.S. Pat. No. 3,074,892) were evaluated using the same test and malodor evaluation procedures as set forth in Example 1. Each test solution contained 5% (wt) DHF and 5% (wt) of the Class A compound identified in Table 3. The MOC effect was evaluated as in Example 1.
Various mixtures of OMC (a Class A Compound) and a Class B compound (i.e., various cyclohexyl esters as disclosed in Schleppnik '221) as identified in Table 4 below were made according to the procedure set forth in Example 1. The MOC of each mixture was evaluated using the procedure set forth in Example 1.

[2] = MOC of sweat malodor on fabric swatches; design: species or system human; conditions: summary of Table 6
Procedure: The following fabric treatment solutions were prepared:
1. A solution of ethanol and Cremophor (a hydrogenated ethoxylated castor oil marketed by BASF Corp., Mount Olive, N.J.) containing 10% (wt) of dihexyl fumerate (DHF).
2. A solution of ethanol and Cremophor containing 10% (wt) of OMC.
3. A solution of ethanol and Cremophor containing 5% (wt) of DHF+5% (wt) OMC.
Five (5) fabric swatches were prepared, and labeled A-E. Swatch A was designated as the control swatch with no malodor. 100 μl of sweat malodor was placed in the middle of swatches B-E. Swatch B was designated as the control swatch for the malodor. The swatches were allowed to equilibrate with the malodor for 20 minutes. Onto swatches C-E, the following solutions were sprayed:
The malodor intensity on the cotton swatches was evaluated as follows:
The malodor intensity on swatch B (Malodor Control) was identified as a 5 (overpoweringly strong) on the scale of 1-5 set forth below at every time point, and the rest of swatches were evaluated based on that standard.

SMILES	10% test (Compound B Alone) (axilla malodor panel score) ([1]; 10% Compound B alone, procedure of Example 1)	5% OMC + 5% Compound B (axilla malodor panel score) ([1]; procedure of Example 1)	MOC effect on sweat malodor on fabric (in words) [2]	10% OMC (Alone) (axilla malodor panel score) ([1]; 10% OMC alone, run beside the Compound B of that table line)
CCCCCCOC(=O)/C=C/C(=O)OCCCCCC [Dihexyl Fumerate, reference compound]	2.6	2.3	had a MOC effect	
CCCCC(CC)COC(=O)/C=C/c1ccc(OC)cc1 (stereo not drawn) [OMC, Octyl methoxy cinnamate]		acts at least additively	had a MOC effect	3.1 and 2.6 and 3.2
